{"source": "paper PMC5039417", "about": "“Aberrant Glycosylation of Anchor-Optimized MUC1 Peptides Can Enhance Antigen Binding Affinity and Reverse Tolerance to Cytotoxic T Lymphocytes” (Biomolecules, 2016)", "test_system": "MCF-7 cells (HLA-A*0201+, MUC1+)", "assay": "51Cr-release assay, peptide-induced CTLs from breast cancer patients", "format": "cell-based, human", "details": "all three breast cancer patient samples, E:T 100:1", "from_the_text": "Figure 7 In vitro stimulation of T cells from HLA-A*0201^+ cancer patients (peri-menopausal) with anchor-optimized and/or glycosylated MUC1 peptides elicited strong CTL activity. (A) PBLs underwent two rounds of stimulation and sorted CD8^+ T cells were subjected to a ^51Cr-release assay. Targets were MCF-7 cells (HLA-A*0201^+, MUC1^+). Effector:target ratio was 100:1 and spontaneous release was less than 25% of complete lysis. The filled triangles designate normal individuals and the open triangles designate breast cancer patients. […] Following two rounds of stimulation, CD8^+ cells were maintained for 24 h on an ELISpot plate. Spot numbers were determined using computer assisted video image analysis by Zellnet Consulting Inc. (FortLee, NJ, USA). There was no evidence of a significance difference in spot numbers between cancer patients and healthy controls (Wilcoxon rank sum test; p > 0.05).\nAn optimized protocol for the generation of peptide-specific CTLs was developed that relied upon autologous DCs for stimulation. PBMCs (2 × 10^6 cells/mL of AIM V medium) were transferred to a 24-well plate and incubated for 2 h at 37 °C. Non-adherent lymphocytes were washed off with PBS and the adherent cells were cultured in X-VIVO medium containing GM-CSF (1000 U/mL) and IL-4 (1000 U/mL) to generate DCs. […] DCs were analyzed by flow cytometry for appropriate maturation markers. […] Five to seven days later, T cells were analyzed for cytolytic activity by ^51Cr-release assay and interferon gamma production by ELISPOT.\nThe lytic activity of the in vitro stimulated peptide-specific CTLs was measured by a standard six-hour ^51Cr-release assay. […] After incubation, 30 μL of supernatant was transferred onto LUMA plates (Perkin Elmer, Waltham, MA, USA) and radioactive ^51Cr release was measured in a Topcount Micro-scintillation Counter (Packard Biosciences, Shelton, CT, USA). […]", "data": [{"substance": "SLAPT(Tn)VHNV [P4, glycosylated anchor-optimized MUC1 peptide]", "values": [{"measurement": "Lysis of MCF-7 cells by T cells from cancer samples", "value": "greater than 30%"}]}]}
